The values that follow come from patent US11958853B1, “6-substituted aminopyrazino[2′,1′:2,3]imidazo[4,5-c][1,7]naphthyridine compounds as CK2 inhibitors” (KING FAISAL UNIVERSITY, priority 2023, dated 2024).

SMILES strings stand for the structures.

Experiment [1] relates to PC3 (prostate) cancer cells. In words: In vitro cytotoxic activity MTT assay, PC3. The format is cell-based. The settings on record: Homo sapiens, PC-3, exposed for 96 hours, 50% inhibition of cell proliferation, read-out: Cytotoxicity IC50, PC3 (prostate). On the procedure: (§1) Compounds 1-12 were screened for their in vitro cytotoxic activity utilizing a 3-(4,5-dimethyl-thiazol-2-yl)-2,5-diphenyltetrazolium bromide (MTT) assay against selected cancer human cell lines consisting of PC3 (prostate), HCT116 (colon), A375 (melanoma), H1299 (lung), MIAPaCa-2 (pancreas), HL60 (leukemia), MCF7 (breast), MDA-MB-231 (breast) (T. Mosmann, J. Immunol. Meth., 1983, 65, 55-63). The cells were cultured at 37° C. in RMPI1640 medium supplemented with 10% fetal bovine serum, 50 IU/mL penicillin, and 50 μg/mL streptomycin in a 5% CO2 incubator. All cells were sub-cultured 3 times/week by trypsinisation. Viable cells were seeded and allowed to adhere for 12 h before a test drug was added in 96-well plates at an initial density of 1.0×10^5 cells/mL. Tumour cell lines were separately exposed to various concentrations of the tested compounds followed by incubation at a temperature of 37° C. during 96 h inside a medium of fresh RMPI 1640. Cells were subsequently incubated at 37° C. using MTT at 0.5 mg/mL during 4 h. After removal of supernatant, formazan crystals were dissolved in isopropanol and the optical density was measured at 570 nm. CX-4945 was used as a positive control.
(Tetrazolium assays rely on reduction of a dye to a coloured formazan, in cell work by metabolically active cells.)

The test system of experiment [2] is HCT116 (colon) cancer cells. The experiment in a line: In vitro cytotoxic activity MTT assay, HCT116. The note with it: Homo sapiens, HCT-116, exposed for 96 hours, 50% inhibition of cell proliferation, read-out: Cytotoxicity IC50, HCT116 (colon). The format is cell-based. As for the experimental part:
as §1

Experiment [3] deals with A375 (melanoma) cancer cells. The experiment in a line: In vitro cytotoxic activity MTT assay, A375. The note with it: Homo sapiens, A-375, exposed for 96 hours, 50% inhibition of cell proliferation, read-out: Cytotoxicity IC50, A375 (melanoma). The format is cell-based. On the procedure:
as §1

For experiment [4], the system named is H1299 (lung) cancer cells. The experiment in a line: In vitro cytotoxic activity MTT assay, H1299. The format is cell-based. The note with it: Homo sapiens, NCI-H1299, exposed for 96 hours, 50% inhibition of cell proliferation, read-out: Cytotoxicity IC50, H1299 (lung). On the procedure:
as §1

Experiment [5] relates to MIAPaCa-2 (pancreas) cancer cells. In words: In vitro cytotoxic activity MTT assay, MIAPaCa-2. Format: cell-based. The settings on record: Homo sapiens, MIA PaCa-2; MIAPaCa-2 cells, exposed for 96 hours, 50% inhibition of cell proliferation; read-out: Cytotoxicity IC50, MIAPaCa-2 (pancreas). As for the experimental part:
as §1

Experiment [6] deals with HL60 (leukemia) cancer cells. The experiment in a line: In vitro cytotoxic activity MTT assay, HL60. Format: cell-based. The settings on record: Homo sapiens, HL-60, exposed for 96 hours, 50% inhibition of cell proliferation, read-out: Cytotoxicity IC50, HL60 (leukemia). On the procedure: as §1
Experiment [7] relates to MCF7 (breast) cancer cells. In words: In vitro cytotoxic activity MTT assay, MCF7. Format: cell-based. The note with it: Homo sapiens, exposed for 96 hours, 50% inhibition of cell proliferation, read-out: Cytotoxicity IC50, MCF7 (breast). On the procedure:
as §1

Experiment [8] relates to MDA-MB-231 (breast) cancer cells. The experiment in a line: In vitro cytotoxic activity MTT assay, MDA-MB-231. The format is cell-based. The settings on record: Homo sapiens; MDA-MB-231 cells, exposed for 96 hours, 50% inhibition of cell proliferation; read-out: Cytotoxicity IC50, MDA-MB-231 (breast). As for the experimental part: as §1
The target in experiment [9] is T1, recombinant human CK2 (RRββ-holoenzyme) (Homo sapiens, UniProt P68400).
T1 construct: purchased Millipore
In words: CK2 Kinase Assay (33P-ATP, filter plate). The note with it: final ATP concentration 15 μM, 10 min at 30° C, eight concentrations; read-out: protein kinase CK2 IC50. Format: biochemical. As for the experimental part: CK2 Kinase Assay was conducted using the protocol as described in Pierre F. et al; J. Med. Chem. 2011, 54, 635-654. The tested compounds in aqueous solution were added at a volume of 10 μL to a reaction mixture comprising 10 μL of assay dilution buffer (ADB; 20 mM MOPS, pH 7.2, 25 mM β-glycerol phosphate, 5 mM EGTA, 1 mM sodium orthovanadate, and 1 mM dithiothreitol), 10 μL of substrate peptide (RRRDDDSDDD, dissolved in ADB at a concentration of 1 mM), 10 μL of recombinant human CK2 (RRββ-holoenzyme, 25 ng dissolved in ADB; Millipore). Reactions were initiated by the addition of 10 μL of ATP solution (90% 75 mM MgCl2, 75 μM ATP (final ATP concentration: 15 μM) dissolved in ADB; 10% [γ-33P] ATP (stock 1 mCi/100 μL; 3000 Ci/mmol (Perkin-Elmer) and maintained for 10 min at 30° C. The reactions were quenched with 100 μL of 0.75% phosphoric acid and then transferred to and filtered through a phosphor cellulose filter plate (Millipore). After washing each well five times with 0.75% phosphoric acid, the plate was dried under vacuum for 5 min and, following the addition of 15 μL of scintillation fluid to each well, the residual radioactivity was measured using a Wallac […] counter. The IC50 values were derived from eight concentrations of test inhibitors.

T1 sequence (P68400 whole entry): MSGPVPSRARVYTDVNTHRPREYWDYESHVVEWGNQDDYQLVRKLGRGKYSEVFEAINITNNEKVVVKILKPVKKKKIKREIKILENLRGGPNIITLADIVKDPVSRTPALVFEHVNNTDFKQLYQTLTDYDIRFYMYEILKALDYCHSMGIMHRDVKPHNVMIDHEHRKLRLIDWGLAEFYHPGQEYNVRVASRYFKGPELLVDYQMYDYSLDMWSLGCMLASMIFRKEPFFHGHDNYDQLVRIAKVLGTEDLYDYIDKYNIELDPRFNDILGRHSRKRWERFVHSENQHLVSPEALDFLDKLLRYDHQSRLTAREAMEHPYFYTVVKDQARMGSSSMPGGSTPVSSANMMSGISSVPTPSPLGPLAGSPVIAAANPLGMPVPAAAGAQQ
T1 sequence (P67870 whole entry partner): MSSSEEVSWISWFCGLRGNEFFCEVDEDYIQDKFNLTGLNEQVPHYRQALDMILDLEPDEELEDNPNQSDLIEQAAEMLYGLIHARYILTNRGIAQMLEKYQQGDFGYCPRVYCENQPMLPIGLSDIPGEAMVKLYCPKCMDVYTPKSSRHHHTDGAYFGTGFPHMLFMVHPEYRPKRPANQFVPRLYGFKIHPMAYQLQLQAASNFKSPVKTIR

As to `Clc1cccc(Nc2nc3cnccc3c3nc4cnccn4c23)c1` [Compound 1, N-(3-chlorophenyl)pyrazino[2′,1′:2,3]imidazo[4,5-c][1,7]naphthyridin-6-amine], the IC50 (as a rule, the point on the concentration scale where inhibition reaches its midpoint) in experiment [1] was 1.1 µM; in [2], 1.4 µM; in experiment [3] it was 3.1 µM; in experiment [4], 1.9 µM; in experiment [5] it was 1.2 µM; in experiment [6] it was 3.3 µM. The concentration for half-maximal inhibition (IC50) in [7] was determined as 5.6 µM; in [8], 4.8 µM; in experiment [9] it was 0.018 µM.
